Experimental data reported in US6967196B1, “Sulfonamide compounds and uses thereof” (Bristol-Myers Squibb Company, priority 1999, dated 2005).
Structures can show the parent of a compound that is named as a salt. Where two headings read alike, the source gives them in different places.

System: amyloid β production in transfected H4 (human neuroglioma) cells stably expressing APP constructs
Experiment: In vitro cell-based assay of inhibitors of amyloid β production (ELISA)
Outline: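 Test agents are screened at 10-100 μM for about 16 hours on cells stably expressing wild-type or variant APP. Secreted Aβ is measured by ELISA and compared with control-treated cells.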

[1] = transfected H4 cells stably expressing APP constructs, approximately 16 hours incubation, amyloid β in medium by ELISA, read-out: ACTIVITY (IC50, inhibition of amyloid β production)
[2] = Homo sapiens, 16 h, transfected H4 cells expressing APP, approximately 16 hours incubation, amyloid β in medium by ELISA, read-out: ACTIVITY (IC50, inhibition of amyloid β production)
[3] = Homo sapiens, 16 h, transfected H4 cells stably expressing APP, approx. 16 h incubation, amyloid β in medium by ELISA, read-out: ACTIVITY (IC50, inhibition of amyloid β production)
[4] = Homo sapiens, 16 h, transfected H4 cells stably expressing APP, approximately 16 hours incubation, amyloid β in medium by ELISA, read-out: ACTIVITY (IC50, inhibition of amyloid β production)
[5] = Homo sapiens, 16 h, transfected H4 cells stably expressing APP constructs, approximately 16 hours incubation, amyloid β in medium by ELISA, read-out: ACTIVITY (IC50, inhibition of amyloid β production)
[6] = transfected H4 cells stably expressing APP, approx. 16 h incubation, amyloid β in medium by ELISA, read-out: ACTIVITY (IC50, inhibition of amyloid β production)
[7] = transfected H4 cells stably expressing APP, approximately 16 hours incubation, amyloid β in medium by ELISA, read-out: ACTIVITY (IC50, inhibition of amyloid β production)
[8] = transfected H4 cells stably expressing APP, approximately 16 hours incubation, amyloid β in medium by ELISA, Table B, read-out: ACTIVITY (IC50, inhibition of amyloid β production)

## C[C@H](CCCN1CCCC(S(C)(=O)=O)C1)N(c1cc(Cl)ccc1Cl)S(=O)(=O)c1ccc(Cl)cc1 (stereo partly drawn) [Example 1108, 4-chloro-N-(2,5-dichlorophenyl)-N-[4-[(3-methylsulfonyl)-1-piperidinyl]-1(R)-methylbutyl]benzenesulfonamide]
[1]
  IC50: ≤ 0.025 µM

## C[C@H](CCCOC(=O)N1CCCC1)N(c1cc(Cl)ccc1CO)S(=O)(=O)c1ccc(Cl)cc1 [Example 1298]
[2]
  IC50: ≤ 0.025 µM

## CC([C@@H]1CCCN1CCS(C)(=O)=O)N(c1cc(Cl)ccc1Cl)S(=O)(=O)c1ccc(Cl)cc1 (some centres unmarked) [Example 1253]
[1]
  IC50: 0.1 to 0.5 µM

## O=C(c1ccc(F)c(F)c1F)N1CCCCC1CCOc1ccccc1CN(c1cc(F)ccc1F)S(=O)(=O)c1ccc(Cl)cc1 (centres unmarked) [Example 797, 4-chloro-N-(2,5-difluorophenyl)-N-(2-{2-[1-(2,3,4-trifluorobenzoyl)-2-piperidinyl]ethoxy}benzyl)benzenesulfonamide]
[3]
  IC50: 0.1 to 0.5 µM

## CC(c1ccccc1OCCCn1ccnc1)N(c1cc(F)ccc1F)S(=O)(=O)c1ccc(Cl)cc1 (centres unmarked) [Example 1046, 4-chloro-N-(2,5-difluorophenyl)-N-(1-{2-[3-(1H-imidazol-1-yl)propoxy]phenyl}ethyl)benzenesulfonamide hydrochloride]
[4]
  IC50: > 0.5 µM

## CC(CCCN1CCOCC1)N(c1cc(Cl)ccc1F)S(=O)(=O)c1ccc(Cl)cc1 (centres unmarked) [Example 1114, 4-chloro-N-(5-chloro-2-fluorophenyl)-N-[4-(4-morpholinyl)-1-methylbutyl]benzenesulfonamide]
[5]
  IC50: 0.025 to 0.05 µM

## CN(C)CCCOc1ccccc1CN(c1ccccc1)S(C)(=O)=O [Example 1082, N-{2-[3-(dimethylamino)propoxy]benzyl}-N-phenylmethanesulfonamide]
[4]
  IC50: > 10 µM

## O=S(=O)(c1ccc(Cl)cc1)N(Cc1ccccc1OCCCN1CCOCC1)c1ccccc1 [Example 859, 4-chloro-N-{2-[3-(4-morpholinyl)propoxy]benzyl}-N-phenylbenzenesulfonamide hydrochloride]
[4]
  IC50: 0.1 to 0.5 µM

## 4-chloro-N-{3-[2-(1-{[(4-chlorophenyl)sulfonyl]-2,5-difluoroanilino}ethyl)phenoxy]propyl}-N-methylbenzamide [Example 722]
[6]
  IC50: 0.1 to 0.5 µM

## tert-butyl 4-{3-[2-({[(4-chlorophenyl)sulfonyl]anilino}methyl)phenoxy]propyl}-1-piperazinecarboxylate hydrochloride [Example 1028]
[7]
  IC50: > 0.5 µM

## C[C@H](COC(=O)N(CCCn1ccnc1)CC1CC1)N(c1cc(Cl)ccc1CO)S(=O)(=O)c1ccc(Cl)cc1 [Example 1251, 4-Chloro-N-[5-chloro-2-(hydroxymethyl)phenyl]-N-[2-[[[N′-[3-(1H-imidazol-1-yl)propyl]-N′-cyclopropylmethylamino]carbonyl]oxy]-(R)-1-methylethyl]benzenesulfonamide]
[1]
  IC50: ≤ 0.025 µM

## O=C(CCc1ccccc1CN(c1ccccc1)S(=O)(=O)c1ccccc1)N1CCCCC1 [Example 1041, N-{2-[3-oxo-3-(1-piperidinyl)propyl]benzyl}-N-phenylbenzenesulfonamide]
[4]
  IC50: > 0.5 µM

## COC(=O)[C@H](NC(=O)CCC[C@@H](C)N(c1cc(Cl)ccc1F)S(=O)(=O)c1ccc(Cl)cc1)C(C)C [Example 1266, (R)-4-Chloro-N-(5-chloro-2-fluorophenyl)-N-[5-[N-(R)-[1-(methoxycarbonyl)-2-methylpropyl]amino]-1-methyl-5-oxopentyl]benzenesulfonamide]
[1]
  IC50: ≤ 0.025 µM

## CC(C)C[C@H](NC(=O)CCCC[C@@H](C)N(c1cc(Cl)ccc1F)S(=O)(=O)c1ccc(Cl)cc1)C(=O)O [Example 1259, (R)-4-Chloro-N-(5-chloro-2-fluorophenyl)-N-[6-[N-(S)-[1-(carboxy)-3-methylbutyl]amino]-1-methyl-6-oxohexyl]benzenesulfonamide]
[1]
  IC50: ≤ 0.025 µM

## O=C(c1ccccc1)N1CCCCC1CCOc1ccccc1CN(c1cc(F)ccc1F)S(=O)(=O)c1ccc(Cl)cc1 (centres unmarked) [Example 745, N-{2-[2-(1-benzoyl-2-piperidinyl)ethoxy]benzyl}-4-chloro-N-(2,5-difluorophenyl)benzenesulfonamide]
[3]
  IC50: 0.1 to 0.5 µM

## N-{2-[2-(1-{[(4-chlorophenyl)sulfonyl]-2,5-difluoroanilino}ethyl)phenoxy]ethyl}-2-cyclohexyl-N-methylacetamide [Example 844]
[7]
  IC50: 0.1 to 0.5 µM

## C[C@@H]1CCC[C@H](C)N1CCCOc1ccccc1CN(c1ccccc1)S(=O)(=O)c1ccc(Cl)cc1 [Example 812, 4-chloro-N-(2-{3-(2R, 6S)-2,6-dimethylpiperidinyl]propoxy}benzyl)-N-phenylbenzenesulfonamide hydrochloride]
[7]
  IC50: 0.1 to 0.5 µM

## O=S(=O)(c1ccc(Cl)cc1)N(Cc1ccccc1OCCCN1CCCCC1)C1CCCC1 [Example 835, 4-chloro-N-cyclopentyl-N-{2-[3-(1-piperidinyl)propoxy]benzyl}benzenesulfonamide hydrochloride]
[4]
  IC50: 0.1 to 0.5 µM

## CC[S+]([O-])CCC[C@@H](C)N(c1cc(Cl)ccc1CO)S(=O)(=O)c1ccc(Cl)cc1 (stereo partly drawn) [Example 1222, 4-chloro-N-[5-chloro-2-(hydroxymethyl)phenyl]-N-[1(R)-methyl-(4-ethylsulfinyl)butyl]benzenesulfonamide]
[1]
  IC50: ≤ 0.025 µM

## C[C@H](CCCS(=O)(=O)N(C)C)N(c1cc(Cl)ccc1CO)S(=O)(=O)c1ccc(Cl)cc1 [Example 1234, 4-chloro-N-[5-chloro-2-(hydroxymethyl)phenyl]-N-[4-[(dimethylamino)sulfonyl]-1(R)-methylbutyl]benzenesulfonamide]
[5]
  IC50: ≤ 0.025 µM

## CC1CCC(NC(=O)[C@@H](C)N(c2cc(Cl)ccc2F)S(=O)(=O)c2ccc(Cl)cc2)CC1 (some centres unmarked) [Example 1342]
[2]
  IC50: 0.1 to 0.5 µM

## C[C@H](CCCNS(C)(=O)=O)N(c1cc(Cl)ccc1F)S(=O)(=O)c1ccc(Cl)cc1 [Example 1100]
[1]
  IC50: ≤ 0.025 µM

## O=S(=O)(c1ccc(Cl)cc1)N(Cc1cc(F)ccc1OCCCN1CCCCC1)c1cc(F)ccc1F [Example 231, 4-Chloro-N-(2,5-difluorophenyl)-N-{5-fluoro-2-[3-(1-piperidinyl)propoxy]benzyl}benzenesulfonamide Hydrochloride]
read-out: ACTIVITY (inhibitory concentration IC50, inhibition of amyloid β production)
  IC50: 0.025 to 0.05 µM

## O=S(=O)(c1ccc(Cl)cc1)N(Cc1ccccc1OCCCN1CCCCC1)c1cc(Cl)ccc1O [Example 887, 4-chloro-N-(5-chloro-2-hydroxyphenyl)-N-{2-[3-(1-piperidinyl)propoxy]benzyl}benzenesulfonamide hydrochloride]
[4]
  IC50: > 0.5 µM

## 2-((1R)-1-{[(4-chlorophenyl)sulfonyl]-2,5-difluoroanilino}ethyl)benzyl (1S)-1-phenylethylcarbamate [Example 823]
[7]
  IC50: 0.1 to 0.5 µM

## (2S)-2-[[2-((1R)-1-{[(4-chlorophenyl)sulfonyl]-2,5-difluoroanilino}ethyl)benzyl](methyl)amino]propanoic acid hydrochloride [Example 659]
[6]
  IC50: 0.1 to 0.5 µM

## CC(=O)SCCCOc1ccccc1CN(c1ccccc1)S(=O)(=O)c1ccc(Cl)cc1 [Example 341, S{3-[2-({[(4-chlorophenyl)sulfonyl]anilino}methyl)phenoxy]propyl}ethanethioate]
[8]
  IC50: 0.05 to 0.1 µM

## CC(CC[C@@H](C)N(c1cc(Cl)ccc1Cl)S(=O)(=O)c1ccc(Cl)cc1)N1CCSC1C(=O)O (stereo partly drawn) [Example 1106, 4-chloro-N-(2,5-dichlorophenyl)-N-[4-(2-carboxy-3-thiazolidinyl)-1(R)-methylpentyl]benzenesulfonamide]
[5]
  IC50: ≤ 0.025 µM

## N-{3-[2-({[(4-chlorophenyl)sulfonyl]-2,5-difluoroanilino}ethyl)phenoxy]propyl}-3,4,5-trimethoxy-N-methylbenzamide [Example 913]
[7]
  IC50: > 0.5 µM

## N-{3-[2-(1-{[(4-chlorophenyl)sulfonyl]-2,5-difluoroanilino}ethyl)phenoxy]propyl}-N,2-dimethylbenzamide [Example 693]
[6]
  IC50: 0.1 to 0.5 µM

## COC(=O)[C@H](CSCc1cc(F)ccc1[C@@H](C)N(c1cc(F)ccc1F)S(=O)(=O)c1ccc(Cl)cc1)NC(=O)OC(C)(C)C [Example 468, Methyl (2R)-2-[(tert-butoxycarbonyl)amino]-3-{[2-((1R)-1-{[(4-chlorophenyl)sulfonyl]-2,5-difluoroanilino}ethyl)-5-fluorobenzyl]sulfanyl}propanoate]
[8]
  IC50: 0.05 to 0.1 µM

## CCC(c1ccccc1OCCCN1CCCCC1)N(c1cc(F)ccc1F)S(=O)(=O)c1ccc(Cl)cc1 (centres unmarked) [Example 878, 4-chloro-N-(2,5-difluorophenyl)-N-(1-{2-[3-(1-piperidinyl)propoxy]phenyl}propyl)benzenesulfonamide hydrochloride]
[4]
  IC50: > 0.5 µM

## 3-[2-((1R)-1-{[(4-chlorophenyl)sulfonyl]-2,5-difluoroanilino}ethyl)-5-fluorophenyl]-1-propanesulfonic acid [Example 881]
[7]
  IC50: > 0.5 µM

## CC([C@@H]1CCCN1)N(c1cc(Cl)ccc1Cl)S(=O)(=O)c1ccc(Cl)cc1 (some centres unmarked) [Example 1254]
[1]
  IC50: > 0.5 µM

## C[C@H](C(=O)NC1Cc2ccccc2C1)N(c1cc(Cl)ccc1F)S(=O)(=O)c1ccc(Cl)cc1 [Example 1310]
[2]
  IC50: > 0.5 µM
